Where two headings read alike, the source gives them in different places.
Key:
Musca domestica L. = assay: Contact test on non-porous tile, Musca domestica; assay type: in vivo; conditions: for synergizing effect on Cypermethrin: synergist applied with Cypermethrin; for mortality at 680 µg/mL: 0.68 mg/ml
Protocol: 1 ml of Composition 1 was applied to the tile. […] 1 ml of Composition 8a was distributed on the tile. […] 1 ml of Composition 8a was distributed on a tile. […] At the end of the 30 minutes, the flies were transferred to an untreated area.
1 ml of Composition 3 was applied to the tile. […] 1 ml of Composition 8c was distributed on the tile. […] 1 ml of Composition 8c was distributed on a tile. […] At the end of the 30 minutes, the flies were transferred to an untreated area.
1 ml of Composition 9a was distributed on the tile. […] 1 ml of Composition 9a was distributed on a tile. […] At the end of the 30 minutes, the flies were transferred to an untreated area. […] 1 ml of Composition 10a was distributed on the tile. […] 1 ml of Composition 10a was distributed on a tile. […] At the end of the 30 minutes, the flies were transferred to an untreated area. […] 1 ml of Composition 8c was distributed on the tile. […] 1 ml of Composition 8c was distributed on a tile. […] At the end of the 30 minutes, the flies were transferred to an untreated area.
1 ml of Composition 5a, was distributed on the tile. […] 1 ml of Composition 6a was distributed on the tile. […] 1 ml of Composition 7a was distributed on the tile.
1 ml of Composition 3 was distributed on the tile. […] 1 ml of Composition 9a was distributed on the tile. […] 1 ml of Composition 11a was distributed on a tile. […] 1 ml of Composition 12a was distributed on a tile.
1 ml of Composition 3 was distributed on the tile. […] 1 ml of Composition 17a was distributed on a tile. […] 1 ml of Composition 18a was distributed on a tile. […] Each experiment (A-C) was conducted in duplicate.
1 ml of Composition 23a was distributed on the tile. […] 1 ml of Composition 20a was distributed on a tile. […] Each experiment (A-B) was conducted in duplicate.
1 ml of Composition 3 was distributed on the tile. […] 1 ml of Composition 25a was distributed on a tile. […] Each experiment (A-B) was conducted in duplicate.
1 ml of Composition 23a was distributed on the tile. […] 1 ml of Composition 27a was distributed on a tile. […] Each experiment (A-B) was conducted in duplicate.
1 ml of Composition 26a was distributed on a tile. […] 1 ml of Composition 26b was distributed on a tile. […] 1 ml of Composition 26c was distributed on a tile.
1 ml of Composition 22a was distributed on a tile. […] 1 ml of Composition 22b was distributed on a tile. […] 1 ml of Composition 22c was distributed on a tile.
1 ml of Composition 23a was distributed on the tile. […] 1 ml of Composition 44a was distributed on a tile.
1 ml of Composition 33 was distributed on a tile. […] 1 ml of Composition 33 was distributed on a tile. […] At the end of the 30 minutes, the flies were transferred to an untreated area.
1 ml of Composition 1 was distributed on the tile. […] 1 ml of Composition 34 was distributed on a tile. […] 1 ml of Composition 34 was distributed on a tile. […] At the end of the 30 minutes, the flies were transferred to an untreated area.
1 ml of Composition 3 was distributed on the tile. […] 1 ml of Composition 31a was distributed on a tile. […] 1 ml of Composition 31b was distributed on a tile. […] 1 ml of Composition 31b was distributed on a tile. […] At the end of the 30 minutes, the flies were transferred to an untreated area. […] 1 ml of Composition 38a was distributed on a tile. […] 1 ml of Composition 38a was distributed on a tile. […] At the end of the 30 minutes, the flies were transferred to an untreated area.
G) According to the invention. 1 ml of Composition 40a was distributed on a tile. […] Subsequently, after waiting for the solvent to evaporate, 10 flies were placed on top of the treated til

Blatta orientalis = conditions: for synergizing effect on Cypermethrin / Mortality %/time (h) (application): Blatta orientalis; for synergizing effect on Cypermethrin: synergist applied with Cypermethrin; for Mortality %/time (h) (application): Table 37, concentrations in mg/ml in label; for Mortality %: insects on treated tile
Protocol: Method: Contact test on non-porous tile measuring 400 cm^2 at a temperature of 28° C. Test duration: up to 72 hours after exposure of the insect to the insecticidal active substance.
(§1) Three tests were performed in parallel, A, B, and C, as follows: • A) Comparative. 1 ml of Composition 2 was applied to the tile. After waiting for the complete evaporation of the solvent, 10 cockroaches were placed on top of the treated tile, starting the test. • B) According to the invention. 1 ml of Composition 8b was distributed on the tile. After waiting for the complete evaporation of the solvent, 1 ml of Composition 2 was added to the same tile. Subsequently, after waiting for the solvent to evaporate, 10 cockroaches were placed on top of the treated tile, starting the test. • C) According to the invention. 1 ml of Composition 8b was distributed on a tile. After waiting for the complete evaporation of the solvent, 10 cockroaches were placed for 30 minutes on top of the treated tile. At the end of the 30 minutes, the cockroaches were transferred to an untreated area.
Method: Contact test on non-porous tile measuring 400 cm^2 at a temperature of 28° C. Test duration: up to 120 hours after exposure of the insect to the insecticidal active substance.
as §1, with “4a” for “2”, “8d” for “8b”, “After” for “Subsequently, after”
Six tests were performed in parallel, A, B, C, D, E and F, as follows: • A) Comparative. 1 ml of Composition 9b was distributed on the tile. After waiting for the complete evaporation of the solvent, 1 ml of Composition 4a was added to the same tile. Subsequently, after waiting for the solvent to evaporate, 10 cockroaches were placed on top of the treated tile, starting the test. • B) Comparative. 1 ml of Composition 9b was distributed on a tile. After waiting for the complete evaporation of the solvent, 10 cockroaches were placed for 30 minutes on top of the treated tile. At the end of the 30 minutes, the cockroaches were transferred to an untreated area. […] 1 ml of Composition 10b was distributed on the tile. After waiting for the complete evaporation of the solvent, 1 ml of Composition 4a was added to the same tile. Subsequently, after waiting for the solvent to evaporate, 10 cockroaches were placed on top of the treated tile, starting the test. • D) Comparative. 1 ml of Composition 10b was distributed on a tile. After waiting for the complete evaporation of the solvent, 10 cockroaches were placed for 30 minutes on top of the treated tile. At the end of the 30 minutes, the cockroaches were transferred to an untreated area. […] 1 ml of Composition 8d was distributed on the tile. After waiting for the complete evaporation of the solvent, 1 ml of Composition 4a was added to the same tile. Subsequently, after waiting for the solvent to evaporate, 10 cockroaches were placed on top of the treated tile, starting the test. • F) According to the invention. 1 ml of Composition 8d was distributed on a tile. After waiting for the complete evaporation of the solvent, 10 cockroaches were placed for 30 minutes on top of the treated tile. At the end of the 30 minutes, the cockroaches were transferred to an untreated area.

Blatta lateralis = assay: Contact test on non-porous tile, Blatta lateralis; assay type: in vivo; design: Mortality %: concentration or dose not given beside the values; conditions: for Mortality %: 25° C, insects on treated tile; for Mortality %/time (h) (application): Table 37, concentrations in mg/ml in label
Protocol: 1 ml of Composition 24 was distributed on the tile. […] 1 ml of Composition 20c was distributed on a tile. […] 1 ml of Composition 20d was distributed on a tile.
1 ml of Composition 24 was distributed on the tile. […] 1 ml of Composition 28 was distributed on a tile. […] Each experiment (A-B) was conducted in duplicate.
1 ml of Composition 24 was distributed on the tile. […] 1 ml of Composition 21 was distributed on a tile.
1 ml of Composition 4b was distributed on the tile. […] 1 ml of Composition 31c was distributed on a tile. […] 1 ml of Composition 31d was distributed on a tile. […] 1 ml of Composition 31d was distributed on a tile.
1 ml of Composition 24 was distributed on the tile. […] 1 ml of Composition 35 was distributed on a tile. […] 1 ml of Composition 40b was distributed on a tile. […] 1 ml of Composition 42 was distributed on a tile.

[1] = Musca domestica, single substance alone, 48 h, read-out: Mortality %/time (h)

CCCCC(CC)COC(=O)OCC(CC)CCCC (stereo not drawn) [bis(2-ethylhexyl)-carbonate]
synergizing effect on Cypermethrin (Musca domestica L.; Musca domestica L.): high synergizing effect | mortality at 680 µg/mL (Musca domestica L.; [1]): 19% | synergizing effect on Cypermethrin (Blatta orientalis): synergizing effect

Alcohol oleic [Composition 20b]
Mortality %/time (h) (application) (Blatta orientalis; 48 h): 0/48 ^ %

CCCCCCCCOC(=O)OCCCCCCCC [Composition 18b, Dioctyl carbonate]
Mortality %/time (h) (application) (Blatta orientalis; 48 h): 0/48 ^ %

CCCCC(O)CO (stereo not drawn) [1,2-hexandiol (0.84), 1,2-hexandiol]
Mortality %/time (h) (application) (Blatta orientalis; 48 h): 0/48 ^ %

CCCCCCCCCCC(CO)CCCCCCCC (stereo not drawn) [2-octyldodecanol]
synergizing effect on Cypermethrin (Musca domestica L.; Musca domestica L.): synergistic effect, comparable to the activity shown by PBO | mortality at 680 µg/mL (Musca domestica L.; [1]): 20% | synergizing effect on Cypermethrin (Blatta orientalis): superior to that shown with PBO

O=[N+]([O-])NC1=NCCN1Cc1ccc(Cl)nc1 [Composition 24, Imidacloprid]
Mortality % (Blatta lateralis; Example 16, 48 h): 20% | Mortality % (Blatta lateralis; Example 22, 48 h): 20% | Mortality % (Blatta lateralis; Example 26, 48 h): 20% | Mortality % (Blatta lateralis; Example 33, 48 h): 20% | Mortality %/time (h) (application) (Blatta lateralis; Blatta lateralis, 48 h): 20/48 ^ %

CCCCC(O)CO (stereo not drawn) [Composition 31d, 1,2-hexandiol]
Mortality %/time (h) (application) (Blatta lateralis; Blatta lateralis, 48 h, listed as 1,2-hexandiol (0.07)): 20/48 ^ %

oleic alcohol [Composition 8b]
Mortality %/time (h) (application) (Blatta orientalis; 48 h): 0/48 ^ %

CCCCC(O)CO (stereo not drawn) [Composition 31c, 1,2-hexandiol]
Mortality %/time (h) (application) (Blatta lateralis; Blatta lateralis, 48 h, listed as 1,2-hexandiol (0.05)): 14/48 ^ %

CCCCC(O)CO (stereo not drawn) [1,2-hexandiol]
synergizing effect on Azamethiphos (Musca domestica L.; Musca domestica L., synergist applied with Azamethiphos): excellent synergizing effect | synergizing effect on Cypermethrin (Musca domestica L.; Musca domestica L.): excellent synergizing effect | synergizing effect on Pyrethrins (Musca domestica L.; Musca domestica L., synergist applied with Pyrethrins): good synergizing effect | synergizing effect on Spinosad (Musca domestica L.; Musca domestica L., synergist applied with Spinosad): good synergizing effect | mortality at 390 µg/mL (Musca domestica L.; Musca domestica, single substance alone, 0.39 mg/ml, 48 h, read-out: Mortality %/time (h)): 4% | mortality at 680 µg/mL (Musca domestica L.; [1]): 7% | mortality at 1050 µg/mL (Musca domestica L.; Musca domestica, single substance alone, 1.05 mg/ml, 48 h, read-out: Mortality %/time (h)): 10% | mortality at 2340 µg/mL (Musca domestica L.; Musca domestica, single substance alone, 2.34 mg/ml, 48 h, read-out: Mortality %/time (h)): 23% | synergizing effect on Cypermethrin (Blatta lateralis; Blatta lateralis, synergist applied with Cypermethrin): good synergizing effect | synergizing effect on Imidacloprid (Blatta lateralis; Blatta lateralis, synergist applied with Imidacloprid): excellent synergizing effect

CCCCCCCC/C=C\CCCCCCCCOC(C)=O [Composition 25b, Oleyl acetate]
Mortality %/time (h) (application) (Blatta orientalis; 48 h): 0/48 ^ %

COP(=O)(OC)SCn1c(=O)oc2cc(Cl)cnc21 [Composition 23b, Azamethiphos]
Mortality % (Blatta orientalis; Example 15, 21° C, 24 h): 10% | Mortality % (Blatta orientalis; Example 15, 21° C, 48 h): 17% | Mortality % (Blatta orientalis; Example 15, 21° C, 72 h): 23% | Mortality % (Blatta orientalis; Example 21, 25° C, 48 h): 17% | Mortality % (Blatta orientalis; Example 25, 21° C, 24 h): 10% | Mortality % (Blatta orientalis; Example 25, 21° C, 48 h): 17% | Mortality % (Blatta orientalis; Example 25, 21° C, 72 h): 23% | Mortality %/time (h) (application) (Blatta orientalis; 48 h): 17/48 ^ %

CC1(C)C(C=C(Cl)Cl)C1C(=O)OC(C#N)c1cccc(Oc2ccccc2)c1 (stereo not drawn) [Composition 4b, Cypermethrin]
Mortality % (Blatta lateralis; Example 31, 24 h): 0% | Mortality % (Blatta lateralis; Example 31, 48 h): 40% | Mortality %/time (h) (application) (Blatta lateralis; Blatta lateralis, 48 h): 40/48 ^ %

Source: patent publication US20260215418A1, “HYDROCARBON ALCOHOLS AND THEIR DERIVATIVES AS SYNERGISTS IN PESTICIDE ACTIVITY” (priority 2022, published 2026)
